This assay addresses T1, CCDC6-RET (Homo sapiens, UniProt P07949+Q16204+Q96SW2).
T1 construct: CCDC6 (natural N-terminal fusion partner, UniProt Q16204); endogenous in cells; host or cells: TPC-1 (parental, papillary thyroid carcinoma)
Nature of the assay: Cellular RET degradation, AlphaLISA, TPC-1 cell line. It counts as cell-based. The settings on record: for Dmax: TPC1, human, 24 h, read-out: Cell Density TPC-1/CCDC6-RET Ymax %; for DC50: read-out: Cell Density TPC-1/CCDC6-RET DC50, half-maximal degradation concentration, TPC-1 (CCDC6-RET), 24 hrs. As to the method:
Cellular RET degradation compound potency was determined using the bead-based luminescent amplification assay-AlphaLISA Surefire Ultra Detection Kit (Perkin-Elmer). The CCDC6-RET fusion expressing papillary thyroid carcinoma (TPC-1) cell line was selected for screening of potential degraders: Parental (TPC-1/CCDC6-RET). Cells were plated in 384 well culture plates (Greiner Bio-One) at 10,000 cells/well in 50 ul/well DMEM (Fisher Scientific) with 2% FBS serum (Gibco). […] Low normalization wells were media only and high normalization wells were cells treated with DMSO only. Treated cell plates were placed in an incubator at 37 °C and 5% CO2 for 24 hrs. At 24 hrs, cell media was removed by a FELIX automated liquid hander (Analytik Jena) and 25 ul of cell lysis buffer (provided in AlphaLisa kit) was added to each well. […] cell lysate were transferred into a 384-well microplate (Perkin Elmer) before addition of 2.5 ul AlphaLISA Acceptor Bead mix. The plates were sealed and kept at room temperature for 1 hr before addition of donor bead mixture. Donor bead addition was performed in the dark and incubated for >1 hr before AlphaLISA luminescence was measured on an Envision plate reader with an Alphascreen aperture at RT (excitation 680 nm, emission 615 nm). RET protein abundance (and therefore degradation) directly corresponds to luminescence intensity.
Intensities were normalized relative to the average values from 16 wells containing media alone (blank-low) and 16 wells containing cells +DMSO (high). % Degradation for each well was determined using the standard equation, where
DC50 (IC50) values for each compound tested are calculated by analyzing plots of % degradation versus compound concentration, and fitting to the standard 4-parameter logistic curve where,
DC50 values are calculated according to the relationship,
Compound replicates were performed in independent assays. Maximum degradation (YMax) was defined as the maximal % degradation value from the 4-parameter logistic equation, as previously described.

SMILES strings stand for the structures.

T1 sequence (Q16204+P07949 fused): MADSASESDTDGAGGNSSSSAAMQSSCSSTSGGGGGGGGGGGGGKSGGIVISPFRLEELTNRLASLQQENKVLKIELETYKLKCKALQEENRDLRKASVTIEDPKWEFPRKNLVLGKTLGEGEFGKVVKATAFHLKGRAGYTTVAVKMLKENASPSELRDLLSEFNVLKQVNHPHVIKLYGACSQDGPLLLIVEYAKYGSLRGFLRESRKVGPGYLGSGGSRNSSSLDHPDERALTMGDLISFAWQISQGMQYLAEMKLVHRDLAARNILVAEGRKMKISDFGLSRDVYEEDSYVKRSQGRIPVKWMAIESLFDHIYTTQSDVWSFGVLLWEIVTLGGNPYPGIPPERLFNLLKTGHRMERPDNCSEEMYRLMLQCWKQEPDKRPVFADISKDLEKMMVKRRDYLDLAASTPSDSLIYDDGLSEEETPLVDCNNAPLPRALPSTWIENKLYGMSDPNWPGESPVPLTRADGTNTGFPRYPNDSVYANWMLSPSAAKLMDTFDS
T1 sequence (Q96SW2 whole entry, the tested form may be a part): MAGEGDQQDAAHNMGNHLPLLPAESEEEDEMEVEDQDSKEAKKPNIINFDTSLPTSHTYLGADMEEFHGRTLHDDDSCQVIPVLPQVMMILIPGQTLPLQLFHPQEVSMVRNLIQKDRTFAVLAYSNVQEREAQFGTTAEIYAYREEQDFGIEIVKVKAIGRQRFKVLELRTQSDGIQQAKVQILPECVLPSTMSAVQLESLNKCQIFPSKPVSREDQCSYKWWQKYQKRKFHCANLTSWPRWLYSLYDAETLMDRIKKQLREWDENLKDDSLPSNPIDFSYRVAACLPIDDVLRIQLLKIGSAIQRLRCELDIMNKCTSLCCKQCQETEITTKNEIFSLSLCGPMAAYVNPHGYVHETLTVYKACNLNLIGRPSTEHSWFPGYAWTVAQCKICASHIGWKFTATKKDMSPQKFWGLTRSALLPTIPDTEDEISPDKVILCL
T1 sequence (Q16531 whole entry partner, the tested form may be a part): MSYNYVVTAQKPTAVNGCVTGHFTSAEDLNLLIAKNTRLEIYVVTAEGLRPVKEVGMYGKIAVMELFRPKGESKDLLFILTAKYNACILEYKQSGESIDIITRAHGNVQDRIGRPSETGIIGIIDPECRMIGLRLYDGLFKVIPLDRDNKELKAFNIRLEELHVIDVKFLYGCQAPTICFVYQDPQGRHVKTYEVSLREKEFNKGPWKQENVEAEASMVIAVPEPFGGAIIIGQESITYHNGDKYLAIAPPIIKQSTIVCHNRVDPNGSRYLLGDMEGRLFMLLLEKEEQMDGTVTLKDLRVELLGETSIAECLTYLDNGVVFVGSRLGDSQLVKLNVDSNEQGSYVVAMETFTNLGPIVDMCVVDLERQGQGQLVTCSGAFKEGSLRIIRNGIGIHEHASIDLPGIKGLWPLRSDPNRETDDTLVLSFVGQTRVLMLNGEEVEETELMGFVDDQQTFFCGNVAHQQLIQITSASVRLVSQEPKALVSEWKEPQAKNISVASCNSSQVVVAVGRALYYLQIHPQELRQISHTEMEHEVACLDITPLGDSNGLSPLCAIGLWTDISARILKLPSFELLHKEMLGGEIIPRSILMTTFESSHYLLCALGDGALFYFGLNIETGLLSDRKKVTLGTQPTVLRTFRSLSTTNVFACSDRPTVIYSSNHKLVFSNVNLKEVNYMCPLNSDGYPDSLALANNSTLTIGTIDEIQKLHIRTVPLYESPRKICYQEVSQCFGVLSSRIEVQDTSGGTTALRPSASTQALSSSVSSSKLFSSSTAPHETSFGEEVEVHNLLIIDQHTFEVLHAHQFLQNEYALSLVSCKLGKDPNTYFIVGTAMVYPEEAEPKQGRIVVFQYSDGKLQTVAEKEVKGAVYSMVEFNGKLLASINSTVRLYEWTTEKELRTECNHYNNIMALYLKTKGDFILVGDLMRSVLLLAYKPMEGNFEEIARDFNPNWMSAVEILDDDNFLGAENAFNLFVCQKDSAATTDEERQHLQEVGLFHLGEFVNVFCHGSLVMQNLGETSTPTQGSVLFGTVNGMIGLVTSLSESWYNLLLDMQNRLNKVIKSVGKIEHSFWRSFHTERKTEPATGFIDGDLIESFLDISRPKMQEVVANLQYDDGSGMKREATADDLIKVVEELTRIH

Regarding `CCOc1cc(-c2ccc(N3CCC(CN4CCN(C(=O)CCN5CCC(c6ccc7c(c6)C(=O)N(C6CCC(=O)NC6=O)C7)CC5)CC4)(NC(=O)C4CC4)CC3)nc2)c2c(C#N)cnn2c1` (stereo not shown) [Example 9, N-(1-(5-(3-cyano-6-ethoxypyrazolo[1,5-a]pyridin-4-yl)pyridin-2-yl)-4-((4-(3-(4-(2-(2,6-dioxopiperidin-3-yl)-3-oxoisoindolin-5-yl)piperidin-1-yl)propanoyl)piperazin-1-yl)methyl)piperidin-4-yl)cyclopropanecarboxamide], the Dmax was greater than 90% and the DC50 was 0.002 to 0.01 µM.

For the molecule `CCOc1cc(-c2ccc(N3CCC(CN4CCC5(CC4)CCN(C(=O)CCN4CCC(c6ccc7c(c6)CN(C6CCC(=O)NC6=O)C7=O)CC4)CC5)(NC(=O)c4cc(F)ccc4F)CC3)nc2)c2c(C#N)cnn2c1` (stereo not shown) [Example 88, N-[1-(5-{3-cyano-6-ethoxypyrazolo[1,5-a]pyridin-4-yl}pyridin-2-yl)-4-{[9-(3-{4-[2-(2,6-dioxopiperidin-3-yl)-1-oxo-2,3-dihydro-1H-isoindol-5-yl]piperidin-1-yl}propanoyl)-3,9-diazaspiro[5.5]undecan-3-yl]methyl}piperidin-4-yl]-2,5-difluorobenzamide], the Dmax was greater than 90% and the DC50 was in the range of 0.01 to 0.1 µM.

Take `CCOc1cc(-c2ccc(N3CCC(CN4CCC5(CCC(CC(=O)N6CCC(c7ccc8c(c7)CN(C7CCC(=O)NC7=O)C8=O)CC6)CC5)CC4)(NC(=O)c4cc(F)ccc4F)CC3)nc2)c2c(C#N)cnn2c1` (stereo not shown) [Example 122, N-[1-(5-{3-cyano-6-ethoxypyrazolo[1,5-a]pyridin-4-yl}pyridin-2-yl)-4-{[9-(2-{4-[2-(2,6-dioxopiperidin-3-yl)-1-oxo-2,3-dihydro-1H-isoindol-5-yl]piperidin-1-yl}-2-oxoethyl)-3-azaspiro[5.5]undecan-3-yl]methyl}piperidin-4-yl]-2,5-difluorobenzamide]: the Dmax was greater than 90% and the DC50 is 0.002 to 0.01 µM.

For the molecule `CCOc1cc(-c2ccc(N3CCC(CN4CCC5(CC4)CCN(C(=O)Cc4ccc6c(c4)CN(C4CCC(=O)NC4=O)C6=O)CC5)(NC(=O)c4cc(F)ccc4F)CC3)nc2)c2c(C#N)cnn2c1` (stereo not shown) [Example 98, N-[1-(5-{3-cyano-6-ethoxypyrazolo[1,5-a]pyridin-4-yl}pyridin-2-yl)-4-[(9-{2-[2-(2,6-dioxopiperidin-3-yl)-1-oxo-2,3-dihydro-1H-isoindol-5-yl]acetyl}-3,9-diazaspiro[5.5]undecan-3-yl)methyl]piperidin-4-yl]-2,5-difluorobenzamide], the Dmax was greater than 90% and the DC50 is 0.002 to 0.01 µM.

As to `CCOc1cc(-c2ccc(N3CCC(NC(=O)c4cc(F)ccc4F)(C(=O)NCCCCCCNc4cccc5c(N6CCC(=O)NC6=O)nn(C)c45)CC3)nc2)c2c(C#N)cnn2c1` [Example 149, 1-(5-{3-cyano-6-ethoxypyrazolo[1,5-a]pyridin-4-yl}pyridin-2-yl)-4-(2,5-difluorobenzamido)-N-(6-{[3-(2,4-dioxo-1,3-diazinan-1-yl)-1-methyl-1H-indazol-7-yl]amino}hexyl)piperidine-4-carboxamide], the Dmax was greater than 90% and the DC50 was less than 0.002 µM.

On to `CCOc1cc(-c2ccc(N3CCC(C)(CN4CCN(C(=O)CCN5CCC(c6ccc7c(c6)CN(C6CCC(=O)NC6=O)C7=O)CC5)CC4)CC3)nc2)c2c(C#N)cnn2c1` (stereo not shown) [Example 129, 4-[6-(4-{[4-(3-{4-[2-(2,6-dioxopiperidin-3-yl)-1-oxo-2,3-dihydro-1H-isoindol-5-yl]piperidin-1-yl}propanoyl)piperazin-1-yl]methyl}-4-methylpiperidin-1-yl)pyridin-3-yl]-6-ethoxypyrazolo[1,5-a]pyridine-3-carbonitrile], for which the Dmax lay within 60 to 90% and the DC50 is 0.1 to 2 µM.

Take `CCOc1cc(-c2ccc(N3CCC(CN4CCN(C(=O)CN5CCN(c6ccc7c(c6)CN(C6CCC(=O)NC6=O)C7=O)CC5)CC4)(NC(=O)c4cc(F)ccc4F)CC3)nc2)c2c(C#N)cnn2c1` (stereo not shown) [Example 6, N-(1-(5-(3-cyano-6-ethoxypyrazolo[1,5-a]pyridin-4-yl)pyridin-2-yl)-4-((4-(2-(4-(2-(2,6-dioxopiperidin-3-yl)-1-oxoisoindolin-5-yl)piperazin-1-yl)acetyl)piperazin-1-yl)methyl)piperidin-4-yl)-2,5-difluorobenzamide]: the Dmax was greater than 90% and the DC50 lay in the range of 0.002 to 0.01 µM.

For the molecule `CCOc1cc(-c2ccc(N3CCC(CN4CCN(C(=O)CCCCCCCCNc5ccc6c(N7CCC(=O)NC7=O)nn(C)c6c5)CC4)(NC(=O)c4cc(F)ccc4F)CC3)nc2)c2c(C#N)cnn2c1` [Example 24, N-[1-(5-{3-cyano-6-ethoxypyrazolo[1,5-a]pyridin-4-yl}pyridin-2-yl)-4-{[4-(9-{[3-(2,4-dioxo-1,3-diazinan-1-yl)-1-methyl-1H-indazol-6-yl]amino}nonanoyl)piperazin-1-yl]methyl}piperidin-4-yl]-2,5-difluorobenzamide], the Dmax is 60 to 90% and the DC50 was 0.01 to 0.1 µM.

In the case of `CCOc1cc(-c2ccc(N3CCC(COCc4cn(CCN5CCN(c6ccc7c(c6)CN(C6CCC(=O)NC6=O)C7=O)CC5)nn4)(NC(=O)c4cc(F)ccc4F)CC3)nc2)c2c(C#N)cnn2c1` (stereo not shown) [Example 49, N-[1-[5-(3-cyano-6-ethoxy-pyrazolo[1,5-a]pyridin-4-yl)-2-pyridyl]-4-[[1-[2-[4-[2-(2,6-dioxo-3-piperidyl)-1-oxo-isoindolin-5-yl]piperazin-1-yl]ethyl]triazol-4-yl]methoxymethyl]-4-piperidyl]-2,5-difluoro-benzamide], the Dmax is greater than 90% and the DC50 lay within 0.002 to 0.01 µM.

As for `CCOc1cc(-c2ccc(N3CCC(CN4CCN(C(=O)C5CC6(CC(Nc7ccc8c(N9CCC(=O)NC9=O)nn(C)c8c7)C6)C5)CC4)(NC(=O)c4cc(F)ccc4F)CC3)nc2)c2c(C#N)cnn2c1` (stereo not shown) [Example 93, N-[1-(5-{3-cyano-6-ethoxypyrazolo[1,5-a]pyridin-4-yl}pyridin-2-yl)-4-{[4-(6-{[3-(2,4-dioxo-1,3-diazinan-1-yl)-1-methyl-1H-indazol-6-yl]amino}spiro[3.3]heptane-2-carbonyl)piperazin-1-yl]methyl}piperidin-4-yl]-2,5-difluorobenzamide], the Dmax is greater than 90% and the DC50 was 0.002 to 0.01 µM.

Turning to `CCOc1cc(-c2ccc(N3CCC(CN4CCN(CCC(=O)N5CCN(c6ccc7c(c6)C(=O)N(C6CCC(=O)NC6=O)C7)CC5)CC4)(NC(=O)c4cc(F)ccc4F)CC3)nc2)c2c(C#N)cnn2c1` (stereo not shown) [Example 115, N-[1-(5-{3-cyano-6-ethoxypyrazolo[1,5-a]pyridin-4-yl}pyridin-2-yl)-4-{[4-(3-{4-[2-(2,6-dioxopiperidin-3-yl)-3-oxo-2,3-dihydro-1H-isoindol-5-yl]piperazin-1-yl}-3-oxopropyl)piperazin-1-yl]methyl}piperidin-4-yl]-2,5-difluorobenzamide], the Dmax lay in the range of 60 to 90% and the DC50 was in the range of 0.01 to 0.1 µM.

As for `CCOc1cc(-c2ccc(N3CCC(NC(=O)c4cc(F)ccc4F)(C(=O)NCCCCCCCCNc4ccc5c(N6CCC(=O)NC6=O)nn(C)c5c4)CC3)nc2)c2c(C#N)cnn2c1` [Example 152, 1-(5-{3-cyano-6-ethoxypyrazolo[1,5-a]pyridin-4-yl}pyridin-2-yl)-4-(2,5-difluorobenzamido)-N-(8-{[3-(2,4-dioxo-1,3-diazinan-1-yl)-1-methyl-1H-indazol-6-yl]amino}octyl)piperidine-4-carboxamide], the Dmax fell in the range of 60 to 90% and the DC50 was 0.002 to 0.01 µM.

As for `CCOc1cc(-c2ccc(N3CCC(CN(C(=O)CCCCN4CCN(c5ccc6c(c5)C(=O)N(C5CCC(=O)NC5=O)C6)CC4)C(C)C)(NC(=O)c4cc(F)ccc4F)CC3)nc2)c2c(C#N)cnn2c1` (stereo not shown) [Example 168, N-[1-(5-{3-cyano-6-ethoxypyrazolo[1,5-a]pyridin-4-yl}pyridin-2-yl)-4-[(5-{4-[2-(2,6-dioxopiperidin-3-yl)-3-oxo-2,3-dihydro-1H-isoindol-5-yl]piperazin-1-yl}-N-(propan-2-yl)pentanamido)methyl]piperidin-4-yl]-2,5-difluorobenzamide], the Dmax is greater than 90% and the DC50 lay within 0.002 to 0.01 µM.

With `CCOc1cc(-c2ccc(N3CCC(NC(=O)c4cc(F)ccc4F)(C(=O)NCCCCCCNc4ccc(N5CCC(=O)NC5=O)cc4)CC3)nc2)c2c(C#N)cnn2c1` [Example 148, 1-(5-{3-cyano-6-ethoxypyrazolo[1,5-a]pyridin-4-yl}pyridin-2-yl)-4-(2,5-difluorobenzamido)-N-(6-{[4-(2,4-dioxo-1,3-diazinan-1-yl)phenyl]amino}hexyl)piperidine-4-carboxamide], the Dmax fell in the range of 60 to 90% and the DC50 lay in the range of 0.002 to 0.01 µM.
